In patent US20070292396A1, “COMBINATION THERAPY WITH ONCOLYTIC ADENOVIRUS” (priority 2006, published 2007):
Where two headings read alike, the source gives them in different places.

Tests used:
U87-MG xenografts = assay: Intracranial glioma xenograft, ICOVIR-5 in combination with RAD001 or TMZ; type: in vivo, athymic mice; details: ICOVIR-5 3×10^7 pfu/mouse intratumoral day 3, 5, 7; RAD001 5 mg/kg/d; TMZ 7.5 mg/kg/5 days; control 30.5 days
Experimental: Animal Studies. U87 MG human glioma cells (5×10^5) were engrafted into the caudate nucleus of athymic mice using a guide-screw system, as previously described (Lal, 2000). The inventors performed three independent experiments using 10 animals per group in each experiment. On days 3, 5, and 7 after implantation of tumor cells, animals were treated with 5 μl intratumoral injections of ICOVIR-5, PBS or adenovirus control (all 3×10^8 pfu/ml). Animals showing general or local symptoms of toxicity were killed. Surviving animals were killed 140 days after tumor implantation. Brains were then removed, fixed in 4% formaldehyde for 24 hours at room temperature, and embedded in paraffin. Hematoxylin-and-eosin-stained sections were evaluated for evidence of tumor, necrosis, and viral nuclear inclusions. The largest (a) and the smallest (b) diameters of the tumors were measures, and these measurements were used in the calculation of tumor volume using the formula a×b2×0.4 (Attia, 1966). […]
Statistical Analysis. […] Data are expressed as mean±SD or 95% confidence intervals (CIs). The in vivo cytopathic effect of ICOVIR-5 on human glioma xenografts was assessed by plotting survival curves according to the Kaplan-Meier method. […]

[1] = test system: U-87 MG and U-251 MG human glioma cells; assay: Cell cycle analysis (DNA content, flow cytometry), Delta-24 and CPT-11; type: cell-based; details: CPT-11 4 μmol/L, alone or 48 hours after 10 MOIs Delta-24
Experimental: (§1) Cell cycle analysis. The DNA content was measured in samples of 10^6 cells that had been infected with 10 MOIs of Delta-24 or UVi Delta-24 or had been mock infected. Forty-eight hours later, cultures were treated with CPT-11 (4 μmol/L) or vehicle. Cells were trypsinized 3 to 5 days after drug treatment, fixed in 70% ice-cold ethanol, and incubated with propidium iodide (5 μg/mL) and RNase A (1 μg/mL) for 20 minutes at 37° C. All DNA content measurements were done with an EPICS XL-MCL cytometer (Coulter Corp., Hialeah, Fla.) equipped with an air-cooled argon ion laser emitting 488 nm at 15 mW. A multicycle program (Phoenix Flow System; Phoenix Controls Corp., San Diego, Calif.) was used for data analysis. Cell viability assays. The chemosensitivity of the treated glioma cells was assessed by using the tetrazolium salt 3-(4,5-dimethylthiazol-2-yl)-2,5-diphenyltetrazolium bromide (Sigma-Aldrich) to measure cell viability. For this assay, 2×10^3 cells per well were seeded in 96-well microtiter plates and infected 24 hours later with Delta-24 (at 1, 2.5, 5, or 10 MOs) or Uvi Delta-24 (10 MOs) or were mock infected. […] The plates were then incubated for an additional 4 hours and then read on a Spectramax 190 microplate reader (Molecular Devices, Sunnyvale, Calif.) at a test wavelength of 570 nm.

U-251 MG cells = assay: Cell viability assay (MTT), CPT-11 after adenoviral infection; type: cell-based; details: Homo sapiens, U-251, 48 h, CPT-11 added 48 hours later
Experimental: (§2) Cell cycle analysis. The DNA content was measured in samples of 10^6 cells that had been infected with 10 MOIs of Delta-24 or UVi Delta-24 or had been mock infected. Forty-eight hours later, cultures were treated with CPT-11 (4 μmol/L) or vehicle. Cells were trypsinized 3 to 5 days after drug treatment, fixed in 70% ice-cold ethanol, and incubated with propidium iodide (5 μg/mL) and RNase A (1 μg/mL) for 20 minutes at 37° C. All DNA content measurements were done with an EPICS XL-MCL cytometer (Coulter Corp., Hialeah, Fla.) equipped with an air-cooled argon ion laser emitting 488 nm at 15 mW. A multicycle program (Phoenix Flow System; Phoenix Controls Corp., San Diego, Calif.) was used for data analysis. Cell viability assays. The chemosensitivity of the treated glioma cells was assessed by using the tetrazolium salt 3-(4,5-dimethylthiazol-2-yl)-2,5-diphenyltetrazolium bromide (Sigma-Aldrich) to measure cell viability. For this assay, 2×10^3 cells per well were seeded in 96-well microtiter plates and infected 24 hours later with Delta-24 (at 1, 2.5, 5, or 10 MOs) or Uvi Delta-24 (10 MOs) or were mock infected. Forty-eight hours after adenoviral treatment, the cells were treated with various concentrations of CPT-11. Triplicate wells were used for each condition. Sixteen wells seeded with untreated glioma cells were used as a viability control, and 16 wells containing only complete medium were used as a control for nonspecific dye reduction. Medium was removed 72 hours after drug treatment, and 100 μL 3-(4,5-dimethylthiazol-2-yl)-2,5-diphenyltetrazolium bromide solution (1 mg/mL) was added to each well. The plates were then incubated for an additional 4 hours and then read on a Spectramax 190 microplate reader (Molecular Devices, Sunnyvale, Calif.) at a test wavelength of 570 nm.

U-87 MG cells = assay: as above; type: cell-based; details: Homo sapiens, 48 h
Experimental: as §2

[2] = test system: U-87 MG and U-251 MG glioma cells; assay: Cell viability assay (MTT), CPT-11 and Delta-24, results stated for both cell lines; type: cell-based, human
Experimental: as §1, with “viability. […] Forty-eight hours after adenoviral treatment, the” for “viability. For this assay, 2×10^3”, “cells” for “cells per well”, “were treated” for “were seeded in 96-well microtiter plates and infected 24 hours later”, “with various concentrations of CPT-11. Triplicate wells” for “with Delta-24 (at 1, 2.5, 5, or 10 MOs) or Uvi Delta-24 (10 MOs) or”, “were used for each condition.” for “were mock infected.”

[3] = test system: U-87 MG human glioma xenograft; assay: Intracranial human glioma xenograft, Delta-24/CPT-11 sequential treatment; type: in vivo, athymic mice; details: Delta-24 1.5×10^8 viral particles intratumoral day 3; CPT-11 5 mg/kg i.p. days 7, 12, 20; control median survival 27 days
Experimental: Animal model. To assess the potential therapeutic relevance of the findings from the in vitro studies, we tested the Delta-24/CPT-11 sequential treatment in an in vivo model of a human glioma xenograft implanted intracranially. The U-87 MG cell line was selected as an exemplary cell line because it produces gliomas in nude mice with highly predictable growth kinetics and well-characterized pathologic features (Lal et al., 2000). To perform a reliable multiple-dose experiment, an implantable guide-screw system was developed that allows for multiple, precise intratumoral administrations of a therapeutic agent(s) (Lal et al., 2000) and has been validated for testing the antiglioma effect of Delta-24 (Fueyo et al., 2003). In this study, 5×10^5 cells of the U-87 MG human glioma cell line were engrafted in the caudate nucleus of athymic mice (Harlan- Sprague-Dawley, Inc., Indianapolis, Ind.). On day 3 after cell implantation, animals were treated with a single intratumoral injection of Delta-24 or UVi Delta-24 (1.5×10^8 viral particles in 5 μL). […] H&E-stained slides were analyzed for evidence of tumor, necrosis, and viral nuclear inclusions. […]
Statistical analyses. […] The in vivo anticancer effect of different treatments was assessed by plotting survival curves according to the Kaplan-Meier method, and groups were compared using the log-rank test.

U-87 MG cell line = assay: In vitro combination of ICOVIR-5 with TMZ or RAD001; type: cell-based, human

SMILES	mean survival (U87-MG xenografts) [days]	cells in the G2-M phase [1]	IC50 (U-251 MG cells; read-out: IC50 dose of CPT-11, U-251 MG cells infected with Delta-24 at 10 MOIs) [nM]	IC50 (U-251 MG cells; read-out: IC50 dose of CPT-11, UVi Delta-24-infected U-251 MG cells) [nM]	IC50 (U-87 MG cells; read-out: IC50 dose of CPT-11, U-87 MG cells infected with Delta-24 at 10 MOIs, CPT-11 added 48 hours later) [nM]	IC50 (U-87 MG cells; read-out: IC50 dose of CPT-11, U-87 MG cells infected with UVi Delta-24, CPT-11 added 48 hours later) [nM]	IC50 ([2]; Homo sapiens, read-out: IC50 for CPT-11, both U-87 MG and U-251 MG cells infected with 2 MOIs of Delta-24) [nM]	inhibition of cell proliferation ([2]; both cell lines, CPT-11 alone)	extension of survival (average) over control [3] [days]	effect of drug on adenoviral replication in vitro (fiber expression, western blot and RT-QT-PCR) (U-87 MG cell line)
Cn1nnc2c(C(N)=O)ncn2c1=O [TMZ, temozolomide]	35.5									
CCc1c2c(nc3ccc(OC(=O)N4CCC(N5CCCCC5)CC4)cc13)-c1cc3c(c(=O)n1C2)COC(=O)[C@]3(O)CC [CPT-11, irinotecan]		> 55 % of the cells in culture	1000	7200	1500	3400	2500	inhibited cell proliferation in a concentration dependent fashion	4	
CO[C@H]1C[C@@H]2CC[C@@H](C)[C@@](O)(O2)C(=O)C(=O)N2CCCC[C@H]2C(=O)O[C@H]([C@H](C)C[C@@H]2CC[C@@H](OCCO)[C@H](OC)C2)CC(=O)[C@H](C)/C=C(\C)[C@@H](O)[C@@H](OC)C(=O)[C@H](C)C[C@H](C)/C=C/C=C/C=C/1C [RAD001]	49									neither RAD001 nor TMZ suppressed adenoviral replication in vitro
